Assay results reported in US5821046A, “RNA oligonucleotides that bind HIV tat protein” (RiboTargets Holdings PLC, priority 1990, dated 1998).
Where two headings read alike, the source gives them in different places.

System: tat protein
Assay: competition filter binding assay, bulge and stem mutant TAR RNAs (FIGS. 10-17, Tables 2 and 3)
Design: species or system HIV-1
Details: 20 nM TAR RNA, read-out: D1/2
Description: The graphs shown in FIGS. 10 to 17 illustrate competition for tat binding between TAR RNA and various mutant TAR RNA sequences. In FIGS. 10 and 11 the region unpaired residues at positions 23, 24, 25, 23 being U, is shown to be essential for tat FIGS. 12, 13, 14, 15, 16 and 17 the base stem immediately adjacent to the U-rich bulge be required for efficient tat binding, with there being a requirement for a binding pair at residues 22 and 40 on one side of the bulge, and the base pair G26 - C39 on the other side of the bulge.
In Tables 2 and 3, D1/2 values for various mutant TAR RNA-L sequences are given along with the results of transactivation experiments in which the altered TAR RNA sequences were introduced into the CAT reporter plasmid D5-3-3. TAR RNA sequences which bind poorly are poor competitors and show increased values for D1/2.
Competitor RNA was produced by transcription as described in the method ---or FIG. 7. Binding reactions (500ul) contained 20 nM TAR RNA, 20,000 dpm ^32 P- labeled TAR RNA, 0.5 ug calf thymus DNA, 0.2 ug yeast tRNA, 40 Units RNAsin (Promega), 50 mM Tris-HCl pH7.5, 20 mM KCl in a final volume of 500 ul. […] The binding reaction mixtures were then filtered through pre-washed nitrocellulose filters (Millipore 0.45 u pore size) and the radioactivity retained on the filters assayed by liquid scintillation counting of the dried filters.

“HIV-1 TAR (UUU): full length HIV-1 TAR RNA of 59 residues prepared by transcription, wild type, UUU bulge (GGGUCUCUCUGGUUAGACCAGAUUUGAGCCUGGGAGCUCUCUGGCUAACUAGGGAACCC; unmodified RNA) [reference compound]” gave an IC50 (Table 2, mutations in the U-rich bulge) of 90 nM and an IC50 (Table 3, mutations in the stem surrounding the U-rich bulge) of 90 nM.
